Laboratory results taken from US6166030A, “Compounds” (priority 1997, dated 2000).

System: endothelial nitric oxide synthase
Assay: Screen for endothelial nitric oxide synthase inhibiting activity
Format: biochemical, human
Conditions: reference standard at 1 μM; endothelial enzyme from HUVECs
Description: Nitric oxide synthase converts ^3 H-L-arginine into ^3 H-L-citrulline which can be separated by cation exchange chromatography and quantified by scintillation counting.
The enzyme is isolated from human umbilical vein endothelial cells (HUVECs) by a procedure based on that of Pollock et al in Proc. Natl. Acad. Sci., 1991, 88, 10480-10484. HUVECs were purchased from Clonetics Corp (San Diego, Calif., USA) and cultured to confluency. Cells can be maintained to passage 35-40 without significant loss of yield of nitric oxide synthase. When cells reach confluency, they are resuspended in Dulbecco's phosphate buffered saline, centrifuged at 800 rpm for 10 minutes, and the cell pellet is then homogenised in ice-cold 50 mM Tris-HCl, 1 mM EDTA, 10% glycerol, 1 mM phenylmethylsulphonylfluoride, 2 μM leupeptin at pH 4.2. Following centrifugation at 34,000 rpm for 60 minutes, the pellet is solubilised in the homogenisation buffer which also contains 20 mM CHAPS. After a 30 minute incubation on ice, the suspension is centrifuged at 34,000 rpm for 30 minutes. The resulting supernatant is stored at -80° C. until use. […]
Labelled L-citrulline is separated from labelled L-arginine by chromatography over a Dowex AG-50W-X8 200-400 mesh column. […] The L-citrulline is then quantified by scintillation counting. […]

In the case of N=C(NCCC[C@H](N)C(=O)O)N[N+](=O)[O-] [N-nitro-L-arginine], the “inhibition of nitric oxide synthetase” value is reported as 70-90%.
